Data published in the CheMixHub viscosity set.
± gives the uncertainty stated by the source.

Assay: xn = mol fraction of the nth substance listed

BrC(Br)Br + Brc1ccccc1
viscosity [mPa·s]
Conditions | x1 = 0.1693 | x1 = 0.1837 | x1 = 0.3354 | x1 = 0.3369 | x1 = 0.5411 | x1 = 0.5417 | x1 = 0.6863 | x1 = 0.6869 | x1 = 0.8606 | x1 = 0.871
298 K, 101.3 kPa | – | 1.207 ± 0.016 | – | 1.333 ± 0.017 | – | 1.51 ± 0.02 | – | 1.627 ± 0.021 | 1.769 ± 0.023 | –
318 K, 101.33 kPa | 0.9504 ± 0.039 | – | 1.051 ± 0.039 | – | 1.179 ± 0.039 | – | 1.272 ± 0.039 | – | – | 1.396 ± 0.039

CCC(C)(C)OC + C1CCCC1
viscosity [mPa·s], 100 kPa
Conditions | x1 = 0.0512 | x1 = 0.1014 | x1 = 0.2107 | x1 = 0.3001 | x1 = 0.4033 | x1 = 0.5001 | x1 = 0.6006 | x1 = 0.7352 | x1 = 0.8928 | x1 = 0.9498
293.15 K | 0.429 ± 0.03 | 0.429 ± 0.03 | 0.431 ± 0.03 | 0.432 ± 0.03 | 0.434 ± 0.03 | 0.435 ± 0.03 | 0.436 ± 0.03 | 0.437 ± 0.03 | 0.439 ± 0.03 | 0.439 ± 0.03
303.15 K | 0.386 ± 0.03 | 0.388 ± 0.03 | 0.392 ± 0.03 | 0.395 ± 0.03 | 0.398 ± 0.03 | 0.401 ± 0.03 | 0.404 ± 0.03 | 0.408 ± 0.03 | 0.413 ± 0.03 | 0.414 ± 0.03
313.15 K | 0.349 ± 0.03 | 0.35 ± 0.03 | 0.353 ± 0.03 | 0.355 ± 0.03 | 0.357 ± 0.03 | 0.359 ± 0.03 | 0.361 ± 0.03 | 0.364 ± 0.03 | 0.367 ± 0.03 | 0.368 ± 0.03

BrC(Br)Br + C1CCCCC1
viscosity [mPa·s]
Conditions | x1 = 0.1747 | x1 = 0.1851 | x1 = 0.3427 | x1 = 0.3428 | x1 = 0.5476 | x1 = 0.5486 | x1 = 0.6899 | x1 = 0.6911 | x1 = 0.8718 | x1 = 0.8747
298 K, 101.3 kPa | – | 0.959 ± 0.01 | – | 1.071 ± 0.012 | – | 1.258 ± 0.014 | 1.409 ± 0.017 | – | 1.67 ± 0.021 | –
318 K, 101.33 kPa | 0.7236 ± 0.039 | – | 0.82 ± 0.039 | – | 0.9769 ± 0.039 | – | – | 1.113 ± 0.039 | – | 1.309 ± 0.039

CCCCCCCCO + C1CCCCC1
Conditions | viscosity [mPa·s]
293.15 K, 100 kPa, x2 = 0.0821 | 7.85 ± 0.63
293.15 K, 100 kPa, x2 = 0.1596 | 6.77 ± 0.54
293.15 K, 100 kPa, x2 = 0.2413 | 5.78 ± 0.46
293.15 K, 100 kPa, x2 = 0.3502 | 4.63 ± 0.37
293.15 K, 100 kPa, x2 = 0.4402 | 3.78 ± 0.3
293.15 K, 100 kPa, x2 = 0.5611 | 2.83 ± 0.23
293.15 K, 100 kPa, x2 = 0.6512 | 2.26 ± 0.18
293.15 K, 100 kPa, x2 = 0.7501 | 1.79 ± 0.14
293.15 K, 100 kPa, x2 = 0.8503 | 1.38 ± 0.11
293.15 K, 100 kPa, x2 = 0.9396 | 1.11 ± 0.09
303.15 K, 100 kPa, x2 = 0.0821 | 5.56 ± 0.45
303.15 K, 100 kPa, x2 = 0.1596 | 4.83 ± 0.39
303.15 K, 100 kPa, x2 = 0.2413 | 4.15 ± 0.33
303.15 K, 100 kPa, x2 = 0.3502 | 3.33 ± 0.27
303.15 K, 100 kPa, x2 = 0.4402 | 2.73 ± 0.22
303.15 K, 100 kPa, x2 = 0.5611 | 2.08 ± 0.17
303.15 K, 100 kPa, x2 = 0.6512 | 1.72 ± 0.14
303.15 K, 100 kPa, x2 = 0.7501 | 1.4 ± 0.11
303.15 K, 100 kPa, x2 = 0.8503 | 1.12 ± 0.09
303.15 K, 100 kPa, x2 = 0.9396 | 0.92 ± 0.07
303.15 K, 101.33 kPa, x1 = 0.1206 | 1.057 ± 0.013
303.15 K, 101.33 kPa, x1 = 0.221 | 1.301 ± 0.016
303.15 K, 101.33 kPa, x1 = 0.2975 | 1.52 ± 0.018
303.15 K, 101.33 kPa, x1 = 0.3517 | 1.697 ± 0.02
303.15 K, 101.33 kPa, x1 = 0.4355 | 2.023 ± 0.024
303.15 K, 101.33 kPa, x1 = 0.5414 | 2.518 ± 0.029
303.15 K, 101.33 kPa, x1 = 0.608 | 2.869 ± 0.033
303.15 K, 101.33 kPa, x1 = 0.755 | 3.829 ± 0.043
303.15 K, 101.33 kPa, x1 = 0.8637 | 4.746 ± 0.053
308 K, 101 kPa, x2 = 0.1494 | 4.134 ± 0.031
308 K, 101 kPa, x2 = 0.2768 | 3.348 ± 0.025
308 K, 101 kPa, x2 = 0.3962 | 2.659 ± 0.02
308 K, 101 kPa, x2 = 0.5076 | 2.09 ± 0.016
308 K, 101 kPa, x2 = 0.6146 | 1.64 ± 0.013
308 K, 101 kPa, x2 = 0.7054 | 1.36 ± 0.011
308 K, 101 kPa, x2 = 0.7911 | 1.132 ± 0.0089
308 K, 101 kPa, x2 = 0.8587 | 0.96 ± 0.0077
308 K, 101 kPa, x2 = 0.9354 | 0.828 ± 0.0067
313.15 K, 100 kPa, x2 = 0.0821 | 4.06 ± 0.33
313.15 K, 100 kPa, x2 = 0.1596 | 3.56 ± 0.29
313.15 K, 100 kPa, x2 = 0.2413 | 3.09 ± 0.25
313.15 K, 100 kPa, x2 = 0.3502 | 2.52 ± 0.2
313.15 K, 100 kPa, x2 = 0.4402 | 2.1 ± 0.17
313.15 K, 100 kPa, x2 = 0.5611 | 1.65 ± 0.13
313.15 K, 100 kPa, x2 = 0.6512 | 1.37 ± 0.11
313.15 K, 100 kPa, x2 = 0.7501 | 1.14 ± 0.09
313.15 K, 100 kPa, x2 = 0.8503 | 0.9 ± 0.07
313.15 K, 100 kPa, x2 = 0.9396 | 0.78 ± 0.06
323.15 K, 100 kPa, x2 = 0.0821 | 3.03 ± 0.24
323.15 K, 100 kPa, x2 = 0.1596 | 2.65 ± 0.21
323.15 K, 100 kPa, x2 = 0.2413 | 2.31 ± 0.19
323.15 K, 100 kPa, x2 = 0.3502 | 1.93 ± 0.16
323.15 K, 100 kPa, x2 = 0.4402 | 1.66 ± 0.13
323.15 K, 100 kPa, x2 = 0.5611 | 1.34 ± 0.11
323.15 K, 100 kPa, x2 = 0.6512 | 1.13 ± 0.09
323.15 K, 100 kPa, x2 = 0.7501 | 0.95 ± 0.08
323.15 K, 100 kPa, x2 = 0.8503 | 0.77 ± 0.06
323.15 K, 100 kPa, x2 = 0.9396 | 0.66 ± 0.05

C=Cc1ccccc1 + C1CCOC1
viscosity [mPa·s], 101.33 kPa
Conditions | x1 = 0.1011 | x1 = 0.199 | x1 = 0.3001 | x1 = 0.401 | x1 = 0.4963 | x1 = 0.6002 | x1 = 0.6993 | x1 = 0.8017 | x1 = 0.8979
298.15 K | 0.514 ± 0.007 | – | 0.595 ± 0.008 | 0.632 ± 0.009 | 0.664 ± 0.009 | 0.695 ± 0.009 | 0.721 ± 0.01 | 0.742 ± 0.01 | 0.747 ± 0.01
303.15 K | 0.49 ± 0.007 | 0.528 ± 0.008 | 0.562 ± 0.008 | 0.599 ± 0.008 | 0.625 ± 0.009 | 0.658 ± 0.009 | 0.677 ± 0.009 | 0.695 ± 0.009 | 0.699 ± 0.009
308.15 K | 0.463 ± 0.007 | 0.498 ± 0.007 | 0.532 ± 0.008 | 0.564 ± 0.008 | 0.589 ± 0.008 | 0.616 ± 0.008 | 0.637 ± 0.009 | 0.652 ± 0.009 | 0.651 ± 0.009

C=Cc1ccccc1 + C1COCCO1
viscosity [mPa·s], 101.33 kPa
Conditions | x1 = 0.1012 | x1 = 0.2139 | x1 = 0.2989 | x1 = 0.3996 | x1 = 0.5054 | x1 = 0.6016 | x1 = 0.7019 | x1 = 0.805 | x1 = 0.9021
298.15 K | 1.119 ± 0.028 | 1.069 ± 0.026 | 1.043 ± 0.026 | 1.005 ± 0.025 | 0.966 ± 0.024 | 0.929 ± 0.023 | 0.891 ± 0.022 | 0.853 ± 0.022 | 0.819 ± 0.021
303.15 K | 1.034 ± 0.026 | 0.987 ± 0.025 | 0.959 ± 0.024 | 0.929 ± 0.023 | 0.893 ± 0.023 | 0.873 ± 0.022 | 0.829 ± 0.021 | 0.795 ± 0.02 | 0.766 ± 0.02
308.15 K | 0.957 ± 0.024 | 0.915 ± 0.023 | 0.889 ± 0.023 | 0.862 ± 0.022 | 0.83 ± 0.021 | 0.802 ± 0.021 | 0.774 ± 0.02 | 0.744 ± 0.019 | 0.716 ± 0.019

CCCCCCCl + C1COCCO1
303.15 K, 101.3 kPa
Conditions | viscosity [mPa·s]
x2 = 0.1087 | 0.6686 ± 0.0045
x2 = 0.2953 | 0.7084 ± 0.0047
x2 = 0.5004 | 0.7719 ± 0.005
x2 = 0.6974 | 0.8637 ± 0.0055
x2 = 0.9013 | 1.004 ± 0.0063

CC12CC3CC(C1)CC(C)(C3)C2 + C1C[C@@H]2[C@H]3CC[C@H](C3)[C@@H]2C1
viscosity [mPa·s], 100 kPa
Conditions | x1 = 0.1021 | x1 = 0.2015 | x1 = 0.3018 | x1 = 0.4005 | x1 = 0.4981 | x1 = 0.602 | x1 = 0.6998 | x1 = 0.8051 | x1 = 0.8993
293.15 K | 3.147 ± 0.026 | 3.237 ± 0.025 | 3.335 ± 0.024 | 3.436 ± 0.023 | 3.513 ± 0.022 | 3.592 ± 0.02 | 3.657 ± 0.019 | – | 3.747 ± 0.017
298.15 K | 2.841 ± 0.024 | 2.922 ± 0.023 | 3.002 ± 0.022 | 3.084 ± 0.021 | 3.151 ± 0.02 | 3.22 ± 0.019 | 3.273 ± 0.018 | – | 3.342 ± 0.016
303.15 K | 2.582 ± 0.022 | 2.65 ± 0.021 | 2.717 ± 0.02 | 2.787 ± 0.02 | 2.847 ± 0.019 | 2.904 ± 0.018 | – | – | 3.002 ± 0.015
313.15 K | 2.158 ± 0.019 | 2.207 ± 0.019 | 2.257 ± 0.018 | 2.307 ± 0.017 | 2.353 ± 0.016 | – | – | 2.451 ± 0.014 | 2.458 ± 0.014
323.15 K | 1.796 ± 0.017 | – | – | – | 1.955 ± 0.015 | 1.989 ± 0.014 | 2.012 ± 0.014 | – | 2.046 ± 0.013

CCCCCCCl + C=C(C)C(=O)OC
303.15 K, 101 kPa
Conditions | viscosity [mPa·s]
x2 = 0.1343 | 0.6215 ± 0.0063
x2 = 0.1947 | 0.6053 ± 0.0062
x2 = 0.3625 | 0.5729 ± 0.0061
x2 = 0.4962 | 0.5511 ± 0.0059
x2 = 0.6029 | 0.5375 ± 0.0059
x2 = 0.8144 | 0.5199 ± 0.0058
x2 = 0.8988 | 0.5152 ± 0.0058

CC(=O)c1ccc(Cl)cc1 + C=CC#N
308.15 K, 101 kPa
Conditions | viscosity [mPa·s]
x1 = 0.0547 | 0.3753 ± 0.0041
x1 = 0.1146 | 0.4278 ± 0.0045
x1 = 0.1793 | 0.4934 ± 0.0051
x1 = 0.2555 | 0.5751 ± 0.0058
x1 = 0.3377 | 0.6821 ± 0.0067
x1 = 0.4269 | 0.819 ± 0.0079
x1 = 0.5441 | 1.026 ± 0.0097
x1 = 0.6719 | 1.303 ± 0.012
x1 = 0.8213 | 1.697 ± 0.015
